Assay results published in ChEMBL document CHEMBL2413072, “Synthesis and in vitro anticancer studies of novel C-2 arylidene congeners of lantadenes” (2013).

Key:
Assay type in all cases: functional
[1] = system: SW-620; test: Growth inhibition of human SW620 cells by sulforhodamine B assay
[2] = system: NCI-H522; test: Growth inhibition of human NCI-H522 cells by sulforhodamine B assay
[3] = system: HOP-92; test: Growth inhibition of human HOP92 cells by sulforhodamine B assay
[4] = system: UACC-257; test: Growth inhibition of human UACC257 cells assessed as cell growth at 10^-8 M by sulforhodamine B assay; settings: read-out: Activity
[5] = system: SK-MEL-28; test: Growth inhibition of human SK-MEL-28 cells assessed as cell growth at 10^-8 M by sulforhodamine B assay; settings: read-out: Activity
[6] = system: SF-539; test: Growth inhibition of human SF539 cells assessed as cell growth at 10^-8 M by sulforhodamine B assay; settings: read-out: Activity
[7] = system: KM12; test: Growth inhibition of human KM12 cells assessed as cell growth at 10^-8 M by sulforhodamine B assay; settings: read-out: Activity
[8] = system: HCT-116; test: Growth inhibition of human HCT116 cells assessed as cell growth at 10^-8 M by sulforhodamine B assay; settings: read-out: Activity
[9] = system: NCI-H522; test: Growth inhibition of human NCI-H522 cells assessed as cell growth at 10^-8 M by sulforhodamine B assay; settings: read-out: Activity
[10] = system: UO-31; test: Growth inhibition of human UO31 cells by sulforhodamine B assay
[11] = system: TK-10; test: Growth inhibition of human TK10 cells by sulforhodamine B assay
[12] = system: A498; test: Growth inhibition of human A498 cells by sulforhodamine B assay
[13] = system: OVCAR-5; test: Growth inhibition of human OVCAR5 cells by sulforhodamine B assay
[14] = system: LOX IMVI; test: Growth inhibition of human LOXIMVI cells by sulforhodamine B assay
[15] = system: U-251; test: Growth inhibition of human U251 cells by sulforhodamine B assay
[16] = system: SF-295; test: Growth inhibition of human SF295 cells by sulforhodamine B assay
[17] = system: MDA-MB-231; test: Growth inhibition of human MDA-MB-231 cells assessed as cell growth at 10^-4 M by sulforhodamine B assay; settings: read-out: Activity
[18] = system: MCF7; test: Growth inhibition of human MCF7 cells assessed as cell growth at 10^-4 M by sulforhodamine B assay; settings: read-out: Activity
[19] = system: DU-145; test: Growth inhibition of human DU145 cells assessed as cell growth at 10^-4 M by sulforhodamine B assay; settings: read-out: Activity
[20] = system: ACHN; test: Growth inhibition of human ACHN cells assessed as cell growth at 10^-4 M by sulforhodamine B assay; settings: read-out: Activity
[21] = system: OVCAR-3; test: Growth inhibition of human OVCAR3 cells assessed as cell growth at 10^-4 M by sulforhodamine B assay; settings: read-out: Activity
[22] = system: UACC-62; test: Growth inhibition of human UACC62 cells assessed as cell growth at 10^-4 M by sulforhodamine B assay; settings: read-out: Activity
[23] = system: M14; test: Growth inhibition of human M14 cells assessed as cell growth at 10^-4 M by sulforhodamine B assay; settings: read-out: Activity
[24] = system: NCI-H460; test: Growth inhibition of human NCI-H460 cells assessed as cell growth at 10^-4 M by sulforhodamine B assay; settings: read-out: Activity
[25] = system: MDA-MB-468; test: Growth inhibition of human MDA-MB-468 cells assessed as cell growth at 10^-6 M by sulforhodamine B assay; settings: read-out: Activity
[26] = system: PC-3; test: Growth inhibition of human PC3 cells assessed as cell growth at 10^-6 M by sulforhodamine B assay; settings: read-out: Activity
[27] = system: SF-539; test: Growth inhibition of human SF539 cells assessed as cell growth at 10^-6 M by sulforhodamine B assay; settings: read-out: Activity
[28] = system: A549; test: Growth inhibition of human A549/ATCC cells assessed as cell growth at 10^-6 M by sulforhodamine B assay; settings: read-out: Activity
[29] = system: UO-31; test: Growth inhibition of human UO31 cells assessed as cell growth at 10^-7 M by sulforhodamine B assay; settings: read-out: Activity
[30] = system: 786-0; test: Growth inhibition of human 786-0 cells assessed as cell growth at 10^-7 M by sulforhodamine B assay; settings: read-out: Activity
[31] = system: OVCAR-3; test: Growth inhibition of human OVCAR3 cells assessed as cell growth at 10^-7 M by sulforhodamine B assay; settings: read-out: Activity
[32] = system: SK-MEL-2; test: Growth inhibition of human SK-MEL-2 cells assessed as cell growth at 10^-7 M by sulforhodamine B assay; settings: read-out: Activity
[33] = system: HT-29; test: Growth inhibition of human HT-29 cells assessed as cell growth at 10^-7 M by sulforhodamine B assay; settings: read-out: Activity
[34] = system: NCI-H460; test: Growth inhibition of human NCI-H460 cells assessed as cell growth at 10^-7 M by sulforhodamine B assay; settings: read-out: Activity
[35] = system: HOP-92; test: Growth inhibition of human HOP92 cells assessed as cell growth at 10^-7 M by sulforhodamine B assay; settings: read-out: Activity
[36] = system: MDA-MB-468; test: Growth inhibition of human MDA-MB-468 cells assessed as cell growth at 10^-8 M by sulforhodamine B assay; settings: read-out: Activity
[37] = system: BT-549; test: Growth inhibition of human BT549 cells assessed as cell growth at 10^-8 M by sulforhodamine B assay; settings: read-out: Activity
[38] = system: CAKI-1; test: Growth inhibition of human CAKI-1 cells assessed as cell growth at 10^-8 M by sulforhodamine B assay; settings: read-out: Activity
[39] = read-out: LC50 (the source's name)
[40] = read-out: pLC50 (the source's name) (converted)

## CC(C)=CC(=O)O[C@@H]1CC(C)(C)C[C@H]2C3=CC[C@@H]4[C@@]5(C)CC[C@H](O)C(C)(C)[C@@H]5CC[C@@]4(C)[C@]3(C)CC[C@@]12C(=O)O [Reduced Lantadene B]
[1]; read-out: GI50
  GI50: 5.69 µM
[1]; [39]
  CC50: > 100 µM
[1]; read-out: TGI
  TGI: 52.6 µM
[1]; read-out: pGI50 (converted)
  GI50: 5.75 µM
[1]; [40]
  CC50: > 100 µM
[1]; read-out: pTGI (converted)
  TGI: 52.5 µM
[2]; read-out: GI50
  GI50: 4.22 µM
[2]; [39]
  CC50: 71.3 µM
[2]; read-out: TGI
  TGI: 21.8 µM
[2]; read-out: pGI50 (converted)
  GI50: 4.17 µM
[2]; [40]
  CC50: 70.8 µM
[2]; read-out: pTGI (converted)
  TGI: 21.9 µM
[3]; read-out: GI50
  GI50: 1.51 µM
[3]; [39]
  CC50: 16.3 µM
[3]; read-out: TGI
  TGI: 4.23 µM
[3]; read-out: pGI50 (converted)
  GI50: 1.51 µM
[3]; [40]
  CC50: 16.2 µM
[3]; read-out: pTGI (converted)
  TGI: 4.27 µM
[4]
  growth at 0.01 µM: 96%
[5]
  growth at 0.01 µM: 100%
[6]
  growth at 0.01 µM: 96%
[7]
  growth at 0.01 µM: 100%
[8]
  growth at 0.01 µM: 99%
[9]
  growth at 0.01 µM: 92%
[10]; read-out: GI50
  GI50: 3.69 µM
[10]; [39]
  CC50: 45.4 µM
[10]; read-out: TGI
  TGI: 15.5 µM
[10]; read-out: pGI50 (converted)
  GI50: 3.72 µM
[10]; [40]
  CC50: 45.7 µM
[10]; read-out: pTGI (converted)
  TGI: 15.5 µM
[11]; read-out: GI50
  GI50: 10.7 µM
[11]; [39]
  CC50: 71.6 µM
[11]; read-out: TGI
  TGI: 27.7 µM
[11]; read-out: pGI50 (converted)
  GI50: 10.7 µM
[11]; [40]
  CC50: 70.8 µM
[11]; read-out: pTGI (converted)
  TGI: 27.5 µM
[12]; read-out: GI50
  GI50: 2.83 µM
[12]; [39]
  CC50: 41.3 µM
[12]; read-out: TGI
  TGI: 13.7 µM
[12]; read-out: pGI50 (converted)
  GI50: 2.82 µM
[12]; [40]
  CC50: 41.7 µM
[12]; read-out: pTGI (converted)
  TGI: 13.8 µM
[13]; read-out: GI50
  GI50: 15.9 µM
[13]; [39]
  CC50: 98.9 µM
[13]; read-out: TGI
  TGI: 39.7 µM
[13]; read-out: pGI50 (converted)
  GI50: 15.8 µM
[13]; [40]
  CC50: 100 µM
[13]; read-out: pTGI (converted)
  TGI: 39.8 µM
[14]; read-out: GI50
  GI50: 9.09 µM
[14]; [39]
  CC50: > 100 µM
[14]; read-out: TGI
  TGI: 38.2 µM
[14]; read-out: pGI50 (converted)
  GI50: 9.12 µM
[14]; [40]
  CC50: > 100 µM
[14]; read-out: pTGI (converted)
  TGI: 38 µM
[15]; read-out: GI50
  GI50: 2.62 µM
[15]; [39]
  CC50: 71.6 µM
[15]; read-out: TGI
  TGI: 16.7 µM
[15]; read-out: pGI50 (converted)
  GI50: 2.63 µM
[15]; [40]
  CC50: 70.8 µM
[15]; read-out: pTGI (converted)
  TGI: 16.6 µM
[16]; read-out: GI50
  GI50: 1.45 µM
[16]; [39]
  CC50: 52.8 µM
[16]; read-out: TGI
  TGI: 11.1 µM
[16]; read-out: pGI50 (converted)
  GI50: 1.45 µM
[16]; [40]
  CC50: 52.5 µM
[16]; read-out: pTGI (converted)
  TGI: 11.2 µM
[17]
  growth at 100 µM: -79%
[18]
  growth at 100 µM: -43%
[19]
  growth at 100 µM: -75%
[20]
  growth at 100 µM: -75%
[21]
  growth at 100 µM: -83%
[22]
  growth at 100 µM: -81%
[23]
  growth at 100 µM: -69%
[24]
  growth at 100 µM: -4%
[25]
  growth at 1 µM: 77%
[26]
  growth at 1 µM: 67%
[27]
  growth at 1 µM: 92%
[28]
  growth at 1 µM: 34%
[29]
  growth at 0.1 µM: 95%
[30]
  growth at 0.1 µM: 96%
[31]
  growth at 0.1 µM: 105%
[32]
  growth at 0.1 µM: 95%
[33]
  growth at 0.1 µM: 95%
[34]
  growth at 0.1 µM: 100%
[35]
  growth at 0.1 µM: 87%
[36]
  growth at 0.01 µM: 92%
[37]
  growth at 0.01 µM: 97%
[38]
  growth at 0.01 µM: 97%
